# Measurements: patent US20250302863A1, “USE OF THBS1 INHIBITOR FOR OVERCOMING DRUG RESISTANCE IN CANCER” (KOREA ADVANCED INSTITUTE OF SCIENCE AND TECHNOLOGY, priority 2022, published 2025)
# Columns and labels:
# Type in all cases: cell-based, Human
# THBS1 = THBS1 expression after TGF-beta pathway activation in sensitive cell lines; settings: two sensitive cell lines, 5 ng/ml TGFβ1 24 hours after seeding, harvested 24 hours later, FIGS. 10D and 10E
# Description: (§1) Dimethyl sulfoxide (DMSO) was purchased from Sigma-Aldrich and was used as a drug control. APR-246 and TGFβ1 protein were purchased from MedChemExpress (MCE). APR-246 was used by diluting 25 mg to a final concentration of 10 mM, and the cells were treated for 4 to 5 days when checking the cell viability and for 24 hours when performing a Western blot experiment. In addition, TGFβ1 at a concentration of 10 μg/ml was a TGF-beta pathway activator, and drug-sensitive cell lines were seeded and treated with 5 ng/ml of TGFβ1 24 hours later, and the cells were harvested 24 hours later.
# (§2) Total RNA was extracted from cells using a total RNA extraction kit from Intron Biotechnology. Genomic DNA was removed by treatment with RNase-free DNase I. Complementary DNA (cDNA) was synthesized using a DiaStar RT kit of Solgent. In addition, RT-PCR was performed using Veriti 96-well Thermal Cycler of Applied Biosystems, and real-time polymerase chain reaction (qRT-PCR) was performed using a QuantStudio 5 real-time PCR system, an SYBR master mix (Genet Bio), and primers.
# TGFβ1 mRNA = TGFβ1 mRNA expression after TGF-beta pathway activation in sensitive cell lines; settings: two sensitive cell lines, 5 ng/ml TGFβ1 24 hours after seeding, harvested 24 hours later, FIGS. 10D and 10E
# Description: as §1, §2
# THBS1 mRNA = experiment: THBS1 knockdown by shRNA, mRNA level by qRT-PCR; settings: lentiviral shRNA, FIG. 8A
# Description: HEK 293T cells were used to transfect shRNA targeting THBS1 and an overexpression vector. In addition to shRNA (shTHBS1; […]; SEQ ID NO: 1) and an overexpression vector (pDNA (VB220725-1808zjh); […]. Infected cells were selected using 1 μg/ml of puromycin for at least one week.
# as §2
# At this time, when NCI-H1792 and NCI-H1793 cell lines, lung cancer cell lines with drug resistance to APR-246, were treated with THBS1-targeting shRNA (SEQ ID NO: 1; […]) as a THBS1 inhibitor, the THBS1 mRNA expression level was reduced (FIG. 8A). In addition, when THBS1 was overexpressed in NCI-H2009 and HCC827, lung cancer cell lines with high drug responsiveness to APR-246, it was confirmed that the THBS1 mRNA expression level was increased (FIG. 8B).
# HCC827 = experiment: Cell viability by APR-246 treatment concentration (IncuCyte, crystal violet); settings: HCC827 p53-mutant lung cancer cells, 4 to 5 days, FIG. 7B
# Description: (§3) Human lung cancer cell lines NCI-H1793, NCI-H2009, and HCC827 were purchased from the Korea Cell Line Bank (KCLB), and NCI-H1792 was purchased from the American Type Culture Collection (ATCC). NCI-H1793 and HCC827 were cultured in a RPMI 1640 medium supplemented with 10% fetal bovine serum (FBS) and antibiotics (100 U/ml penicillin, 100 μg/ml of streptomycin, and 0.25 μg/ml of Fungizone). NCI-H1792 and NCI-H2009 were cultured with the same supplements in a DMEM medium. All the cell lines were cultured at 37° C. in an incubator containing 5% carbon dioxide.
# as §1
# (§4) Cells were seeded in a 96-well plate at 3 to 5×10^3 cells per well. A drug was then treated within 24 hours after seeding. After drug treatment, cell growth was recorded every 3 hours using IncuCyte ZOOM for 4 to 5 days. Cell viability was analyzed using IncuCyte ZOOM 2016A software. After 4 to 5 days, the cells were stained with 1% crystal violet for 30 minutes at room temperature and washed with distilled water to confirm the amount of viable cells.
# (§5) The present inventors confirmed the cell viability according to the APR-246 drug treatment concentration for lung cancer cell lines NCI-H1793, NCI-H1792, HCC827, and NCI-H2009, which were known to have p53 mutations. At this time, APR-246 drug-sensitive cell lines and resistant cell lines were distinguished based on z-score normalized IC50 values.
# NCI-H1792 = experiment: as above; settings: NCI-H1792 p53-mutant lung cancer cells, 4 to 5 days, FIG. 7A
# Description: as §3, §1, §4, §5
# NCI-H1793 = experiment: as above; settings: NCI-H1793 p53-mutant lung cancer cells, 4 to 5 days, FIG. 7A
# Description: as §3, §1, §4, §5
# NCI-H2009 = experiment: as above; settings: NCI-H2009 p53-mutant lung cancer cells, 4 to 5 days, FIG. 7B
# Description: as §3, §1, §4, §5
molecule,measurement,setting,value
"drug that activated the TGF-beta signaling pathway: TGFβ1 protein from MedChemExpress, used as TGF-beta pathway activator at 5 ng/ml",expression level of THBS1,THBS1,increased
same,mRNA expression level of TGFβ1,TGFβ1 mRNA,increased
"THBS1-targeting shRNA: short hairpin RNA targeting THBS1, GTAGGTTATGATGAGTTTAAT (SEQ ID NO: 1), delivered by lentivirus (guide GUAGGUUAUGAUGAGUUUAAU)",THBS1 mRNA expression level,THBS1 mRNA; NCI-H1792 cells,reduced
same,THBS1 mRNA expression level,THBS1 mRNA; NCI-H1793 cells,reduced
COCC1(CO)C(=O)C2CCN1CC2 (centres unmarked) [APR-246],drug response (cell viability),HCC827,clear response
same,drug response (cell viability),NCI-H1792,hardly responded
same,drug response (cell viability),NCI-H1793,hardly responded
same,drug response (cell viability),NCI-H2009,clear response
